Assay results reported in article PMC6514978, “Synthesis, Antibacterial Activities, Mode of Action and Acute Toxicity Studies of New Oxazolidinone-Fluoroquinolone Hybrids” (Molecules, 2019).
pIC50: −log10 of the molar value. Values after ≈ are worked out from the molar mass of the structure shown.

Columns and labels:
[1] = test system: S. suis (9) clinical isolates; assay: Susceptibility of clinical isolates (MIC); assay type: cell-based, Streptococcus suis; details: for Cumulative % of strains inhibited at MIC / No. of strains inhibited at MIC: S. suis (9)
Method in brief: (§1)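 CLSI broth microdilution in cation-adjusted Mueller Hinton broth, Haemophilus Test Medium or MHB with 3–5% lysed horse blood, according to organism. The final inoculum was 5 × 10^5 CFU/mL and plates were read after 16–24 h at 35 °C. Determinations were run in triplicate with ATCC QC strains.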

[2] = test system: S. aureus (46) clinical isolates; assay: Susceptibility of clinical isolates (MIC); assay type: cell-based, Staphylococcus aureus; details: for Cumulative % of strains inhibited at MIC / No. of strains inhibited at MIC: S. aureus (46)
Method in brief: as §1

[3] = test system: H. parasuis (34) clinical isolates; assay: Susceptibility of clinical isolates (MIC); assay type: cell-based, Haemophilus parasuis; details: for Cumulative % of strains inhibited at MIC / No. of strains inhibited at MIC: H. parasuis (34)
Method in brief: as §1

[4] = test system: E. faecalis (72) clinical isolates; assay: Susceptibility of clinical isolates (MIC); assay type: cell-based, Enterococcus faecalis; details: for Cumulative % of strains inhibited at MIC / No. of strains inhibited at MIC: E. faecalis (72)
Method in brief: as §1

[5] = test system: VRE (13B330); assay: MIC, broth microdilution (CLSI), clinical isolate; assay type: cell-based, vancomycin-resistant enterococcus; details: Enterococcus
Excerpt: (§2) 6 standard strains and 3 clinical isolates were used to the preliminary evaluation of in vitro antibacterial activities of oxazolidinone-fluoroquinolone hybrids. For the further evaluation of hybrids OBP-4 and OBP-5, 263 clinical isolates including S. aureus (46), S. haemolyticus(32), S. epidermidis (10), E. faecalis (72), E. faecium (47), S. pneumoniae (13), H. parasuis (34), S. suis (9), and 8 resistant strains including MRSA, MRSE, CIP-resistant S. aureus and S. haemolyticus, VAN and quinolone-resistant S. pneumoniae, LZD-resistant E. faecalis, LZD/VAN and quinolone-resistant E. faecium were collected and tested.
(§3) Susceptibility testing of oxazolidinone-fluoroquinolone hybrids against various bacteria was performed by the broth microdilution method as outlined by the Clinical and Laboratory Standards Institute (CLSI). Three types of media, including cation-adjusted Mueller Hinton broth, Haemophilus Test Medium and cation-adjusted Mueller Hinton broth that contained 3%–5% lysed horse blood, were used to culture the corresponding bacteria. All compounds including comparator drugs were dissolved in an appropriate solvent at a concentration of 2.048 mg/mL and then serially diluted two-fold to provide the required concentrations. A final inoculum of 5 × 10^5 CFU/mL was used and plates were read after incubation for 16–24 h at 35 °C. […] Standard quality control strains (ATCC) were included throughout. Each determination was repeated in triplicate.

[6] = test system: protein synthesis (E. coli extract-based cell-free protein expression system); assay: In vitro transcription/translation assay (S30 T7 cell-free system, Renilla luciferase); assay type: biochemical; details: E. coli S30 T7 cell-free transcription/translation, 1 h, 37 °C; read-out: IC50 Inhib. of Protein Synthesis
Method: The influence of hybrids OBP-4 and OBP-5 against protein synthesis was confirmed by the S30 T7 High-Yield Protein Expression System (Promega Co., Ltd.). The S30 T7 High-Yield Protein Expression System is an E. coli extract-based cell-free protein expression system, which can effectively transcribe and translate DNA fragments with a T7 promoter. The reaction system containing 1 μg plasmid DNA, 20 μL S30 Premix Plus and 18 μL T7 S30 Extract with or without compounds was incubated for 1 h at 37 °C with a rotational speed of 250 rpm, and terminated by cooling in ice for 5 min in a 96-well white multi-well plate. Then, 1.25 μL of the translation reaction mixture was added to 48.75 μL of Renilla Luciferase Assay Lysis Buffer, and mixed with 50 μL of Renilla Luciferase Assay Reagent (cat no. E2810; Promega). Renilla luciferase activity was measured on EnSpire® Multimode Plate Reader (PerkinElmer, Waltham, MA, USA). […] LZD was used as a positive control.

[7] = test system: S. haemolyticus (32) clinical isolates; assay: Susceptibility of clinical isolates (MIC); assay type: cell-based, Staphylococcus haemolyticus; details: for Cumulative % of strains inhibited at MIC / No. of strains inhibited at MIC: S. haemolyticus (32)
Method in brief: as §1

[8] = test system: S. epidermidis (10) clinical isolates; assay: Susceptibility of clinical isolates (MIC); assay type: cell-based, Staphylococcus epidermidis; details: for Cumulative % of strains inhibited at MIC / No. of strains inhibited at MIC: S. epidermidis (10)
Method in brief: as §1

[9] = test system: S. aureus (ATCC29213); assay: MIC, broth microdilution (CLSI), standard strain; assay type: cell-based; details: Staphylococcus aureus
Excerpt: as §2, §3

[10] = test system: E. faecalis (ATCC29212); assay: MIC, broth microdilution (CLSI), standard strain; assay type: cell-based; details: Enterococcus faecalis; E. faecalis (ATCC29212); read-out: MIC
Excerpt: as §2, §3

[11] = test system: H. influenzae (ATCC49247); assay: MIC, broth microdilution (CLSI), standard strain; assay type: cell-based; details: Haemophilus influenzae
Excerpt: as §2, §3

[12] = test system: S. pneumoniae (ATCC49619); assay: MIC, broth microdilution (CLSI), standard strain; assay type: cell-based; details: Streptococcus pneumoniae
Excerpt: as §2, §3

[13] = test system: P. Aeruginosa (ATCC27853); assay: MIC, broth microdilution (CLSI), standard strain; assay type: cell-based; details: Pseudomonas aeruginosa; P. Aeruginosa (ATCC27853); read-out: MIC
Excerpt: as §2, §3

[14] = test system: E. coli (ATCC25922); assay: MIC, broth microdilution (CLSI), standard strain; assay type: cell-based; details: Escherichia coli; E. coli (ATCC25922); read-out: MIC
Excerpt: as §2, §3

[15] = Enterococcus faecalis, E. faecalis, 72 clinical isolates

C[C@H]1CCc2c(N3CCC(O)(COc4ccc(N5C[C@H](CO)OC5=O)cc4F)CC3)c(F)cc3c(=O)c(C(=O)O)cn1c23 [OBP-4]
Cumulative % of strains inhibited at MIC ([1]; MIC 0.125 µg/mL): 77.8%
No. of strains inhibited at MIC ([1]; MIC 0.125 µg/mL): 2
Cumulative % of strains inhibited at MIC ([1]; MIC 2 µg/mL): 100%
No. of strains inhibited at MIC ([1]; MIC 2 µg/mL): 1
Cumulative % of strains inhibited at MIC ([1]; MIC […]): 88.9%
No. of strains inhibited at MIC ([1]; MIC […]): 1
Cumulative % of strains inhibited at MIC ([1]; MIC ≤[…]): 55.6%
No. of strains inhibited at MIC ([1]; MIC ≤[…]): 5
MIC50 ([1]; Streptococcus suis, S. suis, 9 clinical isolates, read-out: MIC50): ≤ 0.0625 µg/mL
MIC90 ([1]; Streptococcus suis, S. suis, 9 clinical isolates, read-out: MIC90): 0.25 µg/mL (≈ 0.417 µM)
MIC ([1]; Streptococcus suis, S. suis, 9 clinical isolates, read-out: MIC Range): 0.0625 to 2 µg/mL (≈ 0.104 to 3.34 µM)
Cumulative % of strains inhibited at MIC ([2]; MIC 0.125 µg/mL): 93.5%
No. of strains inhibited at MIC ([2]; MIC 0.125 µg/mL): 17
Cumulative % of strains inhibited at MIC ([2]; MIC […]): 100.0%
No. of strains inhibited at MIC ([2]; MIC […]): 3
Cumulative % of strains inhibited at MIC ([2]; MIC ≤[…]): 56.5%
No. of strains inhibited at MIC ([2]; MIC ≤[…]): 26
MIC50 ([2]; Staphylococcus aureus, S. aureus, 46 clinical isolates, read-out: MIC50): ≤ 0.0625 µg/mL
MIC90 ([2]; Staphylococcus aureus, S. aureus, 46 clinical isolates, read-out: MIC90): 0.125 µg/mL (≈ 0.208 µM)
MIC ([2]; Staphylococcus aureus, S. aureus, 46 clinical isolates, read-out: MIC Range): 0.0625 to 0.25 µg/mL (≈ 0.104 to 0.417 µM)
MIC50 ([3]; Glaesserella parasuis, H. parasuis, 34 clinical isolates, read-out: MIC50): 1 µg/mL (≈ 1.67 µM)
MIC90 ([3]; Glaesserella parasuis, H. parasuis, 34 clinical isolates, read-out: MIC90): 4 µg/mL (≈ 6.67 µM)
Cumulative % of strains inhibited at MIC ([3]; MIC 0.5 µg/mL): 35.3%
No. of strains inhibited at MIC ([3]; MIC 0.5 µg/mL): 5
Cumulative % of strains inhibited at MIC ([3]; MIC 1 µg/mL): 61.8%
No. of strains inhibited at MIC ([3]; MIC 1 µg/mL): 9
Cumulative % of strains inhibited at MIC ([3]; MIC 2 µg/mL): 79.4%
No. of strains inhibited at MIC ([3]; MIC 2 µg/mL): 6
Cumulative % of strains inhibited at MIC ([3]; MIC 4 µg/mL): 100.0%
No. of strains inhibited at MIC ([3]; MIC 4 µg/mL): 7
Cumulative % of strains inhibited at MIC ([3]; MIC […]): 20.6%
No. of strains inhibited at MIC ([3]; MIC […]): 3
Cumulative % of strains inhibited at MIC ([3]; MIC ≤[…]): 11.8%
No. of strains inhibited at MIC ([3]; MIC ≤[…]): 4
MIC Range ([3]; H. parasuis, 34 clinical isolates): ≤0.0625 to 4 µg/mL
Cumulative % of strains inhibited at MIC ([4]; MIC 0.125 µg/mL): 36.1%
No. of strains inhibited at MIC ([4]; MIC 0.125 µg/mL): 17
Cumulative % of strains inhibited at MIC ([4]; MIC 0.5 µg/mL): 98.6%
No. of strains inhibited at MIC ([4]; MIC 0.5 µg/mL): 2
Cumulative % of strains inhibited at MIC ([4]; MIC 1 µg/mL): 100.0%
No. of strains inhibited at MIC ([4]; MIC 1 µg/mL): 1
Cumulative % of strains inhibited at MIC ([4]; MIC […]): 95.8%
No. of strains inhibited at MIC ([4]; MIC […]): 43
Cumulative % of strains inhibited at MIC ([4]; MIC ≤[…]): 12.5%
No. of strains inhibited at MIC ([4]; MIC ≤[…]): 9
fold higher activity than comparator agents ([4]; E. faecalis clinical isolates): 2- to 16 fold
MIC Range ([4]; E. faecalis, 72 clinical isolates): ≤0.0625 to 1 µg/mL
MIC50 [4, 15]: 0.25 µg/mL (≈ 0.417 µM)
MIC90 [4, 15]: 0.25 µg/mL (≈ 0.417 µM)
MIC [5]: 0.25 µg/mL (≈ 0.417 µM)
pIC50 [6]: 5.30
Cumulative % of strains inhibited at MIC ([7]; MIC 0.125 µg/mL): 93.8%
No. of strains inhibited at MIC ([7]; MIC 0.125 µg/mL): 16
Cumulative % of strains inhibited at MIC ([7]; MIC 0.5 µg/mL): 100.0%
No. of strains inhibited at MIC ([7]; MIC 0.5 µg/mL): 2
Cumulative % of strains inhibited at MIC ([7]; MIC ≤[…]): 43.8%
No. of strains inhibited at MIC ([7]; MIC ≤[…]): 14
MIC50 ([7]; Staphylococcus haemolyticus, S. haemolyticus, 32 clinical isolates, read-out: MIC50): 0.125 µg/mL (≈ 0.208 µM)
MIC90 ([7]; Staphylococcus haemolyticus, S. haemolyticus, 32 clinical isolates, read-out: MIC90): 0.125 µg/mL (≈ 0.208 µM)
MIC ([7]; Staphylococcus haemolyticus, S. haemolyticus, 32 clinical isolates, read-out: MIC Range): 0.0625 to 0.5 µg/mL (≈ 0.104 to 0.834 µM)
Cumulative % of strains inhibited at MIC ([8]; MIC 0.125 µg/mL): 60.0%
No. of strains inhibited at MIC ([8]; MIC 0.125 µg/mL): 4
Cumulative % of strains inhibited at MIC ([8]; MIC […]): 100.0%
No. of strains inhibited at MIC ([8]; MIC […]): 4
Cumulative % of strains inhibited at MIC ([8]; MIC ≤[…]): 20.0%
No. of strains inhibited at MIC ([8]; MIC ≤[…]): 2
MIC50 ([8]; Staphylococcus epidermidis, S. epidermidis, 10 clinical isolates, read-out: MIC50): 0.125 µg/mL (≈ 0.208 µM)
MIC90 ([8]; Staphylococcus epidermidis, S. epidermidis, 10 clinical isolates, read-out: MIC90): 0.25 µg/mL (≈ 0.417 µM)
MIC ([8]; Staphylococcus epidermidis, S. epidermidis, 10 clinical isolates, read-out: MIC Range): 0.0625 to 0.25 µg/mL (≈ 0.104 to 0.417 µM)
MIC [9]: 0.016 µg/mL (≈ 0.0267 µM)
MIC [10]: 0.25 µg/mL (≈ 0.417 µM)
MIC [11]: 0.25 µg/mL (≈ 0.417 µM)
MIC [12]: 0.031 µg/mL (≈ 0.0517 µM)
MIC [13]: 64 µg/mL (≈ 107 µM)
MIC [14]: 4 µg/mL (≈ 6.67 µM)
